In one assay the target is T1, recombinant BRD4 BD1 (Homo sapiens, UniProt O60885).
T1 construct: for recombinant BRD4 BD1 and BRD4 BD2 proteins
Description: Competitive fluorescence-polarization (FP) binding assay, BRD4 BD1. Further: probe 1.5 nM. Conditions: competitive FP assay; protein 10 nM, probe […]; read-out: IC50 (nM) BRD4 BD1. The method in brief:
(§1)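 FP competition with FAM-labelled probe (ZBA248 or BRD-1F) against preincubated protein/probe complex; BD1 at 10 nM and BD2 at 6 nM final, in 100 mM potassium phosphate pH 6.5, 0.01% Triton X-100. 30 min, room temperature. IC50 by nonlinear regression; Ki also derived, using probe Kd from protein saturation.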

In a further assay the test system is MOLM-13. Description: Cell growth inhibition, MOLM-13 leukemia cells (CellTiter-Glo). It is filed as cell-based. Conditions: Homo sapiens, MOLM-13, 96 h; 4 days; read-out: IC50 (nM) MOLM-13 Cell Line (CellTiter-Glo assay). Put shortly:
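MOLM-13 leukemia cells treated with compounds; viability read by CellTiter-Glo luminescence after 10-20 min reagent incubation at room temperature. IC50 derived from luminescent signal.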
(ATP-based viability assays read luminescence as a measure of living cells.)

The next assay deals with T2, recombinant BRD4 BD2 (Homo sapiens, UniProt O60885).
T2 construct: for recombinant BRD4 BD1 and BRD4 BD2 proteins
Description: Competitive fluorescence-polarization (FP) binding assay, BRD4 BD2. Further: probe 1.5 nM. Conditions: competitive FP assay; protein 6 nM, probe […]; read-out: IC50 (nM) BRD4 BD2. Put shortly:
as §1

Another assay relates to MDA-MB-436. Description: Cell growth inhibition, MDA-MB-436 breast cancer cells (WST-8). It is filed as cell-based. Conditions: Homo sapiens, MDA-MB-436, 96 h; 4 days; read-out: IC50 (nM) MDA-MB-436 Cell Line (WST assay). Put shortly: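 IC50 was computed from WST-8-based cell counting in MDA-MB-436 cells, with absorbance read at 450 nm.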
A general note: Tetrazolium assays rely on reduction of a dye to a coloured formazan, in cell work by metabolically active cells.

A word on the IC50: it is the concentration that gives 50% inhibition.

Consider `COc1cc2c(cc1-c1c(C)noc1C)[nH]c1nc(C)nc(Nc3cc(C)nn3-c3cccc(Cl)c3)c12` [Cpd. No. 7, N-(1-(3-Chlorophenyl)-3-methyl-1H-pyrazol-5-yl)-7-(3,5-dimethylisoxazol-4-yl)-6-methoxy-2-methyl-9H-pyrimido[4,5-b]indol-4-amine], for which the IC50 came out at 365 nM on recombinant BRD4 BD1, 56.3 nM in the assay with MOLM-13, 198 nM on recombinant BRD4 BD2 and 142 nM with MDA-MB-436.

`COc1cc2c(cc1-c1c(C)noc1C)[nH]c1nc(C)nc(Nc3n[nH]c4ccccc34)c12` [Cpd. No. 58, 7-(3,5-Dimethylisoxazol-4-yl)-N-(1H-indazol-3-yl)-6-methoxy-2-methyl-9H-pyrimido[4,5-b]indol-4-amine]: the IC50 at recombinant BRD4 BD1 came to 11 nM; with MOLM-13, 32 nM; at recombinant BRD4 BD2, 22.6 nM; with MDA-MB-436, 54.6 nM.

For the molecule `COc1cc2c(cc1-c1c(C)noc1C)[nH]c1nc(C)nc(Nc3cc(C(C)(C)C)nn3C)c12` [Cpd. No. 120, N-(3-tert-Butyl-1-methyl-1H-pyrazol-5-yl)-7-(3,5-dimethylisoxazol-4-yl)-6-methoxy-2-methyl-9H-pyrimido[4,5-b]indol-4-amine], the half-inhibitory concentration (IC50) on recombinant BRD4 BD1 worked out at 9.6 nM; in the assay with MOLM-13, 23 nM; at recombinant BRD4 BD2, 5.8 nM; with MDA-MB-436, 23.5 nM.

Consider `COc1cc2c(cc1-c1c(C)noc1C)[nH]c1nc(C)nc(Nc3c(C)cnn3C(C)(C)C)c12` [Cpd. No. 196, N-(1-(tert-butyl)-4-methyl-1H-pyrazol-5-yl)-7-(3,5-dimethylisoxazol-4-yl)-6-methoxy-2-methyl-9H-pyrimido[4,5-b]indol-4-amine], for which the IC50 at recombinant BRD4 BD1 came to 10 nM; in the assay with MOLM-13, 32.7 nM; on recombinant BRD4 BD2 it was 7.5 nM; with MDA-MB-436 it was 52.5 nM.

As to `COc1cc2c(cc1-c1c(C)noc1C)[nH]c1nc(C)nc(Nc3cccc(Cl)c3F)c12` [Cpd. No. 217, N-(3-chloro-2-fluorophenyl)-7-(3,5-dimethylisoxazol-4-yl)-6-methoxy-2-methyl-9H-pyrimido[4,5-b]indol-4-amine], the IC50 turned out to be 165 nM at recombinant BRD4 BD1, 498 nM in the assay with MOLM-13, 68 nM at recombinant BRD4 BD2 and 1930 nM in the assay with MDA-MB-436.

Turning to `COc1cc2c(cc1-c1c(C)noc1C)[nH]c1nc(C)nc(Nc3cccc4c3CCO4)c12` [Cpd. No. 234, N-(2,3-dihydrobenzofuran-4-yl)-7-(3,5-dimethylisoxazol-4-yl)-6-methoxy-2-methyl-9H-pyrimido[4,5-b]indol-4-amine], the IC50 turned out to be 25 nM at recombinant BRD4 BD1, 34 nM in the assay with MOLM-13, 25 nM at recombinant BRD4 BD2 and 139 nM in the assay with MDA-MB-436.

In the case of `COc1cc2c(cc1-c1c(C)noc1C)[nH]c1nc(C)nc(Nc3cc(F)cc(Cl)c3)c12` [Cpd. No. 225, N-(3-chloro-5-fluorophenyl)-7-(3,5-dimethylisoxazol-4-yl)-6-methoxy-2-methyl-9H-pyrimido[4,5-b]indol-4-amine], the half-maximal inhibitory concentration (IC50) at recombinant BRD4 BD1 is 213 nM; with MOLM-13 it was 189 nM; at recombinant BRD4 BD2, 108 nM; in the assay on MDA-MB-436, 315 nM.

Turning to `COc1cc2c(cc1-c1c(C)noc1C)[nH]c1nc(C)nc(Nc3c(C(C)C)nn(C)c3C)c12` [Cpd. No. 194, 7-(3,5-dimethylisoxazol-4-yl)-N-(3-isopropyl-1,5-dimethyl-1H-pyrazol-4-yl)-6-methoxy-2-methyl-9H-pyrimido[4,5-b]indol-4-amine], the concentration for half-maximal inhibition (IC50) at recombinant BRD4 BD1 was 10.1 nM; with MOLM-13 it was 13.2 nM; on recombinant BRD4 BD2 it was 14.2 nM; in the assay with MDA-MB-436, 59.6 nM.

Regarding `COc1cc2c(cc1-c1c(C)noc1C)[nH]c1nc(C)nc(Nc3cc(C)nn3C3CCCC3)c12` [Cpd. No. 118, N-(1-Cyclopentyl-3-methyl-1H-pyrazol-5-yl)-7-(3,5-dimethylisoxazol-4-yl)-6-methoxy-2-methyl-9H-pyrimido[4,5-b]indol-4-amine], the IC50 at recombinant BRD4 BD1 was 4.2 nM; in the assay with MOLM-13 it was 17.7 nM; on recombinant BRD4 BD2, 3.4 nM; with MDA-MB-436 it was 25 nM.

With `COc1cc2c(cc1-c1c(C)noc1C)[nH]c1nc(C)nc(Nc3ccc(F)c(Cl)c3)c12` [Cpd. No. 107, N-(3-chloro-4-fluorophenyl)-7-(3,5-dimethylisoxazol-4-yl)-6-methoxy-2-methyl-9H-pyrimido[4,5-b]indol-4-amine], the concentration for half-maximal inhibition (IC50) at recombinant BRD4 BD1 came to 92 nM; in the assay on MOLM-13 it was 8 nM; on recombinant BRD4 BD2, 33 nM; with MDA-MB-436, 229 nM.

For `COc1cc2c(cc1-c1c(C)noc1C)[nH]c1nc(C)nc(Nc3c4c(nn3C(C)C)CCCC4)c12` [Cpd. No. 138, 7-(3,5-Dimethylisoxazol-4-yl)-N-(2-isopropyl-4,5,6,7-tetrahydro-2H-indazol-3-yl)-6-methoxy-2-methyl-9H-pyrimido[4,5-b]indol-4-amine], the 50% inhibitory concentration (IC50) on recombinant BRD4 BD1 is 4.2 nM; in the assay with MOLM-13, 5.7 nM; on recombinant BRD4 BD2, 1.2 nM; in the assay with MDA-MB-436, 30.3 nM.

Consider `COc1cc2c(cc1-c1c(C)noc1C)[nH]c1nc(C)nc(Nc3ccnn3C)c12` [Cpd. No. 172, 7-(3,5-dimethylisoxazol-4-yl)-6-methoxy-2-methyl-N-(1-methyl-1H-pyrazol-5-yl)-9H-pyrimido[4,5-b]indol-4-amine], for which the IC50 was 57.2 nM at recombinant BRD4 BD1, 453 nM in the assay on MOLM-13, 49.5 nM on recombinant BRD4 BD2 and 634 nM with MDA-MB-436.

For the molecule `COc1cc2c(cc1-c1c(C)noc1C)[nH]c1nc(C)nc(Nc3nn(C)cc3C)c12` [Cpd. No. 77, N-(1,4-dimethyl-1H-pyrazol-3-yl)-7-(3,5-dimethylisoxazol-4-yl)-6-methoxy-2-methyl-9H-pyrimido[4,5-b]indol-4-amine], the IC50 at recombinant BRD4 BD1 turned out to be 64.4 nM; in the assay on MOLM-13, 242 nM; on recombinant BRD4 BD2, 168 nM; in the assay with MDA-MB-436 it was 351 nM.

`COc1cc2c(cc1-c1c(C)noc1C)[nH]c1nc(C)nc(Nc3c(C)nn(C(C)C)c3C)c12` [Cpd. No. 36, 7-(3,5-dimethylisoxazol-4-yl)-N-(1-isopropyl-3,5-dimethyl-1H-pyrazol-4-yl)-6-methoxy-2-methyl-9H-pyrimido[4,5-b]indol-4-amine]: the IC50 on recombinant BRD4 BD1 is 68.5 nM; in the assay with MOLM-13, 103 nM; on recombinant BRD4 BD2, 92.6 nM; in the assay on MDA-MB-436, 236 nM.

Turning to `COc1cc2c(cc1-c1c(C)noc1C)[nH]c1nc(C)nc(Nc3c(C#N)cnn3C)c12` [Cpd. No. 174, 5-((7-(3,5-dimethylisoxazol-4-yl)-6-methoxy-2-methyl-9H-pyrimido[4,5-b]indol-4-yl)amino)-1-methyl-1H-pyrazole-4-carbonitrile], the IC50 came out at 142 nM on recombinant BRD4 BD1, 108 nM with MOLM-13, 117 nM on recombinant BRD4 BD2 and 118 nM with MDA-MB-436.

Consider `COc1cc2c(cc1-c1c(C)noc1C)[nH]c1nc(C)nc(Nc3cnn(C)c3C)c12` [Cpd. No. 170, N-(1,5-dimethyl-1H-pyrazol-4-yl)-7-(3,5-dimethylisoxazol-4-yl)-6-methoxy-2-methyl-9H-pyrimido[4,5-b]indol-4-amine], for which the half-inhibitory concentration (IC50) is 44.9 nM on recombinant BRD4 BD1, 131 nM in the assay on MOLM-13, 56.5 nM at recombinant BRD4 BD2 and 222 nM with MDA-MB-436.

The values are drawn from patent US9580430B2, “9H-pyrimido[4,5-B]indoles and related analogs as BET bromodomain inhibitors” (THE REGENTS OF THE UNIVERSITY OF MICHIGAN, priority 2014, dated 2017).
